The values that follow are results of earlier work, collected in US20110183941A1 (priority 2010, published 2011).

For the series the following is noted: at room temperature.

Each structure is given as a SMILES string.

Turning to `O=C(O)CNCP(=O)(O)O` [glyphosate], the solubility is listed as 1.5%.
